According to patent publication US20060223780A1, “Method for administration of capecitabine” (priority 2005, published 2006):

Key:
[1] = test system: MX-1; conditions: cited from earlier work
[2] = approved dose and schedule of capecitabine; cited from earlier work
[3] = test system: MAXF 401; conditions: cited from earlier work
[4] = test system: tumor; test: Experiment 2: schedules at the same daily dosages (survival, tumor volume, body weight); assay type: in vivo
From the text: Following is the design of the final experiment with the schedules and dosages used (Table 2): […]

[5] = test system: tumor; test: Experiment 2 data: Gompertzian growth / drug effect (DE) population modelling with NONMEM; assay type: in vivo; conditions: for time of maximal DE after start of treatment, average / time of maximal DE after start of treatment, range: individual data; for time of maximal drug effect (DE) after start of treatment / Day on which the drug effect (DE) is maximal, F'(x)≈0: pooled data; for Day on which the drug effect (DE) is maximal, F'(x)≈0: start of treatment day 17
Description: Therefore, the data were then analyzed for the approved (14/7) chemotherapy drug schedule by measuring at each time point after the initiation of therapy the ratio of the (data-derived) expected Gompertzian growth rate in the unperturbed (control) state compared with that observed in the treated state. Curve-fitting was performed by non-linear mixed-effect population modeling using NONMEM software.
The Analysis performed used a non-linear mixed effects population modelling approach with the NONMEM software:
A) with the Gompertzian growth model (TV: tumor volume): • dTV/dt=α*TV−((α/log(TVinf))*TV*log(TV))
B) and the drug effect (DE) model • dTV/dt=α*TV−((α/log(TVinf)*TV*log(TV))*(1−DE)

[6] = Schedule C (2 d on, 5 d off), even at the lowest daily dosages
[7] = non toxic doses, compared between schedules, p.o.

CCCCCOC(=O)Nc1nc(=O)n([C@@H]2O[C@H](C)[C@@H](O)[C@H]2O)cc1F [capecitabine, 5′-deoxy-5-fluoro-N-[(pentyloxy)-carbonyl]-cytidine]
toxicity (death of mice) [1, 6]: most of the mice died
antitumor efficacy (tumor growth inhibition after 6 weeks of treatment) [1, 7]: equivalent
median time to onset of hand-foot syndrome [2]: about 79 days
toxicity (death of mice) [3, 6]: most of the mice died
antitumor efficacy (tumor growth inhibition after 6 weeks of treatment) [3, 7]: equivalent
toxicity ([4]; higher 2 dose levels, 14 days of treatment compared to shorter treatment durations (dose comparison, Tables 4-1, 4-2)): increased levels of toxicity
safety profile ([4]; higher daily dosage, reduced number of treatment days, reintroduced after a rest period): same or a better safety profile
toxicity ([4]; higher dose levels 24, 14 days of treatment compared to shorter treatment durations (schedule comparison, Tables 5-1, 5-2)): increased levels of toxicity
survival curves ([4]; lower 2 dose ranges, 14 days on/7 days off vs 7 days on/7 days off): similar
efficacy (tumor volume), schedule comparison at the same daily dosages ([4]; lowest dose level): advantage in efficacy towards the 14 days on/7 days off schedule
efficacy ([4]; schedules with a fewer number of treatment days, at higher dose levels): higher efficacy
tumor volume reduction ([4]; two lowest dose levels, 14 days on/7 days off vs 7 days on/7 days off): similar
time of maximal DE after start of treatment, average ([5]; 1.5 mmol/kg/day): 8.3 days
time of maximal DE after start of treatment, range ([5]; 1.5 mmol/kg/day): 6 to 11 days
time of maximal drug effect (DE) after start of treatment ([5]; 1.5 mmol/kg/day): 10 days
Day on which the drug effect (DE) is maximal, F'(x)≈0 ([5]; 1.5 mmol/kg/day): 27
time of maximal DE after start of treatment, average ([5]; 2.25 mmol/kg/day): 10.1 days
time of maximal DE after start of treatment, range ([5]; 2.25 mmol/kg/day): 5 to 18 days
time of maximal drug effect (DE) after start of treatment ([5]; 2.25 mmol/kg/day): 8 days
Day on which the drug effect (DE) is maximal, F'(x)≈0 ([5]; 2.25 mmol/kg/day): 25
time point of maximum impact of treatment (averages), into therapy ([5]; all dose levels analyzed, 14/7 schedule): 8.3 to 10.1 days
